For two compounds, inhibition and IC50 results are on record in ChEMBL document CHEMBL5653615 (J Biol Chem, 2013).

In assay [1] the target is T1, Mitogen-activated protein kinase 13 (Homo sapiens) (UniProt O15264).
T1 sequence (whole entry): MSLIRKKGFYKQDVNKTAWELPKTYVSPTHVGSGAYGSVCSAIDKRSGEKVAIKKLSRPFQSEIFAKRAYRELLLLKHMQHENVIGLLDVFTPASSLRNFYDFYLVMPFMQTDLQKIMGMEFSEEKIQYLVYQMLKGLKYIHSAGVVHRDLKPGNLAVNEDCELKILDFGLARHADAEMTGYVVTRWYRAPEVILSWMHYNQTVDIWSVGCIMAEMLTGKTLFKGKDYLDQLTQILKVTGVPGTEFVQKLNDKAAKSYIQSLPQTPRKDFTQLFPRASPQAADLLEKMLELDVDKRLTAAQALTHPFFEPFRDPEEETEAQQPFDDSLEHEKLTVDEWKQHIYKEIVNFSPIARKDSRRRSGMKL
Kind of assay: Inhibition of human MAPK13 at 500 nM by HotSpot assay relative to control.

Assay [2] addresses Hepatocyte growth factor receptor (Homo sapiens) (UniProt P08581). Kind of assay: Inhibition of human c-MET at 500 nM by HotSpot assay relative to control.
Assay [3] concerns the target T2, Serine/threonine-protein kinase Sgk3 (Homo sapiens) (UniProt Q96BR1).
T2 sequence (whole entry): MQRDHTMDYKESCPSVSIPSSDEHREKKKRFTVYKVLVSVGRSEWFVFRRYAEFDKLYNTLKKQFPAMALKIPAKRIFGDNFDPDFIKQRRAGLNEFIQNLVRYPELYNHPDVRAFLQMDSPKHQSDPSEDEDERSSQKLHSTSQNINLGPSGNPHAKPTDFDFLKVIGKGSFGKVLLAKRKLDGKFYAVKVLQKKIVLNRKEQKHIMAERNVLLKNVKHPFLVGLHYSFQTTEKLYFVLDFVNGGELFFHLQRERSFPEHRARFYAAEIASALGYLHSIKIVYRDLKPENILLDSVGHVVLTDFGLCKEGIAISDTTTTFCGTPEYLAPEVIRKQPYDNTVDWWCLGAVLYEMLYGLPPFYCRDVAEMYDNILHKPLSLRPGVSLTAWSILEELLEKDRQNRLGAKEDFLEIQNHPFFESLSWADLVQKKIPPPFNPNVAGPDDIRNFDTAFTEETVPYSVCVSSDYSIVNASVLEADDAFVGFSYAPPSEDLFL
Kind of assay: Inhibition of human SGKL at 500 nM by HotSpot assay relative to control.

Assay [4] has as its target Fibroblast growth factor receptor 2 (Homo sapiens) (UniProt P21802). Kind of assay: Inhibition of human FGFR2 at 500 nM by HotSpot assay relative to control.
Assay [5] addresses Serine/threonine-protein kinase Nek7 (Homo sapiens) (UniProt Q8TDX7). Kind of assay: Inhibition of human NEK7 at 500 nM by HotSpot assay relative to control.
Assay [6] addresses Casein kinase I isoform gamma-2 (Homo sapiens) (UniProt P78368). Nature of the assay: Inhibition of human CK1g2 at 500 nM by HotSpot assay relative to control.
Assay [7] concerns the target Ephrin type-A receptor 4 (Homo sapiens) (UniProt P54764). Kind of assay: Inhibition of human EPHA4 at 500 nM by HotSpot assay relative to control.
For assay [8], the target named is T3, Inhibitor of nuclear factor kappa-B kinase subunit alpha (Homo sapiens) (UniProt O15111).
T3 sequence (whole entry): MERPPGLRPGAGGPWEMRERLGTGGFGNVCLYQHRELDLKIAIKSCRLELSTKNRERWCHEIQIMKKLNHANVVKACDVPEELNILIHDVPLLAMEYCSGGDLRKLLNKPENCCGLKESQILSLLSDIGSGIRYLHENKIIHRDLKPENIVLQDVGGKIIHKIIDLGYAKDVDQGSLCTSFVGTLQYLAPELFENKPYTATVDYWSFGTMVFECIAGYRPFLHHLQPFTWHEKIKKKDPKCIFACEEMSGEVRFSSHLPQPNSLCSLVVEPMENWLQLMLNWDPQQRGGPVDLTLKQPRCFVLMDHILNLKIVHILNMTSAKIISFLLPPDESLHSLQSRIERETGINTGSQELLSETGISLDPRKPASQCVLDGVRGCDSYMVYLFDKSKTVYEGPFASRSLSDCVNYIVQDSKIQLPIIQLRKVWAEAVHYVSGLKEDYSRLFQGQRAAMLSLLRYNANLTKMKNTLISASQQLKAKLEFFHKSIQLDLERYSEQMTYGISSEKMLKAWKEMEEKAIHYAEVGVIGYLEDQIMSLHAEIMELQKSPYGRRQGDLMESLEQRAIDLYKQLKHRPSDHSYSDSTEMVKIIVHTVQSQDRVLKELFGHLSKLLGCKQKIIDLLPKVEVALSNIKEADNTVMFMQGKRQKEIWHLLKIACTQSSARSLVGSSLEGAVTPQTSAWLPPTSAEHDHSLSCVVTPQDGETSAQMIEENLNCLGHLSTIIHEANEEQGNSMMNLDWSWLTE
Nature of the assay: Inhibition of human IKKa at 500 nM by HotSpot assay relative to control.

Assay [9] concerns the target Leukocyte tyrosine kinase receptor (Homo sapiens) (UniProt P29376). Nature of the assay: Inhibition of human LTK at 500 nM by HotSpot assay relative to control.
Assay [10] concerns the target Serine/threonine-protein kinase WNK3 (Homo sapiens) (UniProt Q9BYP7). Nature of the assay: Inhibition of human WNK3 at 500 nM by HotSpot assay relative to control.
The target in assay [11] is T4, Serine/threonine-protein kinase 17A (Homo sapiens) (UniProt Q9UEE5).
T4 sequence (whole entry): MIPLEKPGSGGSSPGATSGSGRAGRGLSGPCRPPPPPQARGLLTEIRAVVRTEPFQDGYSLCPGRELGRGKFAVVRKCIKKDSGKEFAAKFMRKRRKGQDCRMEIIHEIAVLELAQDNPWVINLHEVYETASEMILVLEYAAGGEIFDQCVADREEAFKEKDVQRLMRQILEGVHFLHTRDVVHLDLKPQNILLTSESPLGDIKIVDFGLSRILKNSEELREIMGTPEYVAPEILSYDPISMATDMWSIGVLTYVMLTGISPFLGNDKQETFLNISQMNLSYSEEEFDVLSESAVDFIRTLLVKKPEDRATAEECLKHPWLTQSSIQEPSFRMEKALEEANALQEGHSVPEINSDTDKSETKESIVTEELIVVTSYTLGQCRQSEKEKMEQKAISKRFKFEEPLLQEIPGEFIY
Kind of assay: Inhibition of human DRAK1 at 500 nM by HotSpot assay relative to control.

Assay [12] is described as follows: Inhibition of inactive form of human Insulin receptor (978 to 1283 residues) C981S mutant kinase domain expressed in baculovirus infected Sf9 cells incubated for 1 hr by [gamma-33P]ATP assay.
Assay [13] has as its target BDNF/NT-3 growth factors receptor (Homo sapiens) (UniProt Q16620). Kind of assay: Inhibition of human TRKB at 500 nM by HotSpot assay relative to control.

Casein kinase I isoform gamma-2 (Homo sapiens), sequence (P78368 whole entry, looked up, canonical isoform): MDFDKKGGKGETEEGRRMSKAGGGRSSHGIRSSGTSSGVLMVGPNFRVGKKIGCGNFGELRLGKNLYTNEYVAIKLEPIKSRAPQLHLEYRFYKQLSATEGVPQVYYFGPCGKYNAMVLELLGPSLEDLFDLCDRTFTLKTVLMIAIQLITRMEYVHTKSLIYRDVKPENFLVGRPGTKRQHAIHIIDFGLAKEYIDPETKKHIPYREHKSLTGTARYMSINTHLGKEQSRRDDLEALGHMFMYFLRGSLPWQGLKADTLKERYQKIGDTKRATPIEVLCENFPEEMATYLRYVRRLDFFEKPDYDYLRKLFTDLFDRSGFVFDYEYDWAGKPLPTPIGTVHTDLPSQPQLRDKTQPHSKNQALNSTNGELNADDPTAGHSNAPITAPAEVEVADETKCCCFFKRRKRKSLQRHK
Serine/threonine-protein kinase WNK3 (Homo sapiens), sequence (Q9BYP7 whole entry): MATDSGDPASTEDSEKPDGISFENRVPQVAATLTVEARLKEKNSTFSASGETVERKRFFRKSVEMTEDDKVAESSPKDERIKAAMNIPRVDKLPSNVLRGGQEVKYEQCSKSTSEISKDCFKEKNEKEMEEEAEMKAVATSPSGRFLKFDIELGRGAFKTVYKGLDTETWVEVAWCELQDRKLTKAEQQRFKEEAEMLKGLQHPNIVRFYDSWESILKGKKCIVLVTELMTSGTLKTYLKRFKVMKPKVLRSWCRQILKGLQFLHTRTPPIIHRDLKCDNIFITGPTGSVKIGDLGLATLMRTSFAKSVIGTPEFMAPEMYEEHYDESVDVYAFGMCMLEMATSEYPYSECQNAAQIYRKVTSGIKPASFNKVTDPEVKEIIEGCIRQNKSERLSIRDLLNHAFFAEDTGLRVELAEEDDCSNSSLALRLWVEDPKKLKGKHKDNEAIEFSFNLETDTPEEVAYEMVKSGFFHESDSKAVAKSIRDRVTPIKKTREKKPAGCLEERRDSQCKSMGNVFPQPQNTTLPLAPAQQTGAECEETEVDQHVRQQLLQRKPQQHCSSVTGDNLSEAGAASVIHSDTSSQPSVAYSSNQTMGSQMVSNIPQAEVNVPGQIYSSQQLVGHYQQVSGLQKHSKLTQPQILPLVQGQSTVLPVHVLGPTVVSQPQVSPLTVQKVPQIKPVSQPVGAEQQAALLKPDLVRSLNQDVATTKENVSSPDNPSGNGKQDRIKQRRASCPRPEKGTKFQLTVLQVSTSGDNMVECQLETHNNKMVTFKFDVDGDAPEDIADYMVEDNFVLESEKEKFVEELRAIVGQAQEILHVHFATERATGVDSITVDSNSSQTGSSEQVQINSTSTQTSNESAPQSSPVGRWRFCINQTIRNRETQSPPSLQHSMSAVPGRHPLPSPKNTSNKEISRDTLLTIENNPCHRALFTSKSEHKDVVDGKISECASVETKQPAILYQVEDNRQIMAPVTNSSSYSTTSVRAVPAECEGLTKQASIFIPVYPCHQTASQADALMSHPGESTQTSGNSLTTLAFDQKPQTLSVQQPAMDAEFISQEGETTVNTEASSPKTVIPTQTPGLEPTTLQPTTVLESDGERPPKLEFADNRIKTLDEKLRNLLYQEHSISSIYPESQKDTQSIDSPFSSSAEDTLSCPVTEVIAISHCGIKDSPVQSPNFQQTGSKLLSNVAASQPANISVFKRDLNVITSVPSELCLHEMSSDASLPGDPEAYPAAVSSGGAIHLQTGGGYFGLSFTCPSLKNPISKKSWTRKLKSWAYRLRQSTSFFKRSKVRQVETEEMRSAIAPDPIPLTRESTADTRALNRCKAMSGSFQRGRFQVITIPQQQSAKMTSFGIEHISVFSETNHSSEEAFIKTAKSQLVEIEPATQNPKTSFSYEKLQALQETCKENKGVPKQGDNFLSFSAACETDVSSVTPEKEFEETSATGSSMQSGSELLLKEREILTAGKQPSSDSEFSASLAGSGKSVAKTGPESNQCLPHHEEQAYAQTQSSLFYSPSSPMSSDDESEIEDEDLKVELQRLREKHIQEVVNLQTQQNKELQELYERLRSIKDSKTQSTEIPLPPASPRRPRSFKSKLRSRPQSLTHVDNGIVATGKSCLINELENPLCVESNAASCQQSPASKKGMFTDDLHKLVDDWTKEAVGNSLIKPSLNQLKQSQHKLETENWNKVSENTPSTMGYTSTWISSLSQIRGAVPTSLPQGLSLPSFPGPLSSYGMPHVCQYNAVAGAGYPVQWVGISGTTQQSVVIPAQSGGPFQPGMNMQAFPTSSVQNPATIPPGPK
Fibroblast growth factor receptor 2 (Homo sapiens), sequence (P21802 22-821 limits assumed): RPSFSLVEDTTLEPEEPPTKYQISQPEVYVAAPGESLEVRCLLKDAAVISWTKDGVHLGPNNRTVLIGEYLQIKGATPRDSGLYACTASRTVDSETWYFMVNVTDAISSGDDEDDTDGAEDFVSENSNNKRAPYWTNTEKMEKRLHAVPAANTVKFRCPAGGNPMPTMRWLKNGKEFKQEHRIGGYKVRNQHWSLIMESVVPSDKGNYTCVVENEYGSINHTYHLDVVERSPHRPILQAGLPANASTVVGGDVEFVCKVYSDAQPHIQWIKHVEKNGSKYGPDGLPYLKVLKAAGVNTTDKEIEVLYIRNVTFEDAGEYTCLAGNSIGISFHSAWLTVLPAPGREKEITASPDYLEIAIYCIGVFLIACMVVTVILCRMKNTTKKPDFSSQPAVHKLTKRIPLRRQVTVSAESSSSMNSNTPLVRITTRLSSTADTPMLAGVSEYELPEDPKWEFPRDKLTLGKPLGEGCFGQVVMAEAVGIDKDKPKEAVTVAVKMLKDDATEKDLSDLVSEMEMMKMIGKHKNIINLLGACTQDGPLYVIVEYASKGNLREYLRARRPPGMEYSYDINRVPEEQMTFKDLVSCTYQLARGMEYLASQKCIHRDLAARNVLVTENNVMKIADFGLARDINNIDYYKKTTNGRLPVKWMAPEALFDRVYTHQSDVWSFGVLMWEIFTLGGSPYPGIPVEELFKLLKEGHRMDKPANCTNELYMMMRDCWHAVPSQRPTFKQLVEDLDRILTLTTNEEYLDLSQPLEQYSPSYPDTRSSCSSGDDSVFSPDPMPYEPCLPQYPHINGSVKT
Hepatocyte growth factor receptor (Homo sapiens), sequence (P08581 whole entry): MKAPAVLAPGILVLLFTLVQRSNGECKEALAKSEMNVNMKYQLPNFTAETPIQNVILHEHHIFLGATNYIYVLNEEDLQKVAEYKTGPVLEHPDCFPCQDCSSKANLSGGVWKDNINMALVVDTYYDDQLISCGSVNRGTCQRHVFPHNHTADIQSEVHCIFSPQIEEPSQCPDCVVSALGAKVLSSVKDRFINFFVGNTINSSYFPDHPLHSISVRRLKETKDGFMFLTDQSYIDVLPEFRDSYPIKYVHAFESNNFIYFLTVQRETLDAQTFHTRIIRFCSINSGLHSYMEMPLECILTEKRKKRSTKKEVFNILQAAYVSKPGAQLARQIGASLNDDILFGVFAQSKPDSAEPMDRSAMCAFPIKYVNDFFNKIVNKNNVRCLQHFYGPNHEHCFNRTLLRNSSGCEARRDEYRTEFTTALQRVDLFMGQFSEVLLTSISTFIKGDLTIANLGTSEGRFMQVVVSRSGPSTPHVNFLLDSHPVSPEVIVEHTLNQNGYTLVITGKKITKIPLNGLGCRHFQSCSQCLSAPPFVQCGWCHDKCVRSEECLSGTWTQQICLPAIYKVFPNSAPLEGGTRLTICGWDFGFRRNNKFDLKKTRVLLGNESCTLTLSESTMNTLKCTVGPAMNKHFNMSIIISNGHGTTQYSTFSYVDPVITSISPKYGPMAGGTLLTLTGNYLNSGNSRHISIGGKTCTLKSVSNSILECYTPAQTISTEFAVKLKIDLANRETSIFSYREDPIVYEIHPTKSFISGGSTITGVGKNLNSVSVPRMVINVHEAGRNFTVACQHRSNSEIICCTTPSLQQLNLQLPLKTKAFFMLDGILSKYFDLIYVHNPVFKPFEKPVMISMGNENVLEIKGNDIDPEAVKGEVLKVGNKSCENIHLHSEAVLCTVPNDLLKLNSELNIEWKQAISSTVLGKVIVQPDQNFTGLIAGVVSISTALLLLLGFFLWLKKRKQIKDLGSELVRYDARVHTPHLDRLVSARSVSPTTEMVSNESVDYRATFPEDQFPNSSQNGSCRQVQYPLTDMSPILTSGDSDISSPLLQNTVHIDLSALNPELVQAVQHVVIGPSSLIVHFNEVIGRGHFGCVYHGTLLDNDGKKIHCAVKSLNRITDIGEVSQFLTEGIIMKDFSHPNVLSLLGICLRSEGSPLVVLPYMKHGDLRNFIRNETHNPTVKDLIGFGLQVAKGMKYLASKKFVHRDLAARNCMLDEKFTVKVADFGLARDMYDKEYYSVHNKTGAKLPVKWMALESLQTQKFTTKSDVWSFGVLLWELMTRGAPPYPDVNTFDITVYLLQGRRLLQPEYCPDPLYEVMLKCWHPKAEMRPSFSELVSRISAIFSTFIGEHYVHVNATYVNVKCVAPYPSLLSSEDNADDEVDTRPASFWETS
Serine/threonine-protein kinase Nek7 (Homo sapiens), sequence (Q8TDX7 whole entry, looked up, canonical isoform): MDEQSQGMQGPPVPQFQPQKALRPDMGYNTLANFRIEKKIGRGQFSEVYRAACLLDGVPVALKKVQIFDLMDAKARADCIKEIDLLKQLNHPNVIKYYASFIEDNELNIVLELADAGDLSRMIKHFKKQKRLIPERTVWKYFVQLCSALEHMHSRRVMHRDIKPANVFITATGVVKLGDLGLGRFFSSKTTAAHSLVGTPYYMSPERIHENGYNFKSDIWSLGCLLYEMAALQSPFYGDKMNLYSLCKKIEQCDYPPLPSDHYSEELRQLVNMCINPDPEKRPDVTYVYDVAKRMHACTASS

Broadly, the inhibition is the relative decrease from the control value, in per cent. By IC50 is commonly meant the concentration needed to halve the response being measured. A high value points to weaker potency in that assay. With `Oc1n[nH]c2nnc(-c3c(-c4ccccc4)nn4ccccc34)cc12`, the inhibition in assay [1] was 3.76%; in [2], 4.83%; in assay [3] it was 0.31%; in assay [4], -0.03%; in assay [5] it was 3.15%; in assay [6], 3.49%. The inhibition in assay [7] was -8.13%; in assay [8], -0.4%; in assay [9], -7.87%; in assay [10] it was 0.29%; in assay [11], -1.05%; in assay [13] it was 2.59%. The compound also registered an IC50 in [12] of 1.8 µM.
Take `Nc1n[nH]c2nnc(-c3c(-c4ccccc4)nn4ccccc34)cc12`: the inhibition in assay [1] was -0.81%; in assay [2], 5.04%; in assay [3] it was 9.81%; in assay [4] it was -1.79%; in assay [5] it was 4.72%; in [6], -9.31%. Also, the inhibition in assay [7] is 14.1%; in assay [8] it was 2.52%; in assay [9], 9.45%; in assay [10], -1.28%; in [11] it was 0.09%; in assay [13] it was 10.3%. In assay [12], this compound showed an IC50 of 5.4 µM.
